Reference: US20240300948A1, “Heterocyclic Compounds As Kinase Inhibitors” (Incyte Corporation, priority 2023, published 2024)

Tests used:
[1] = target: T1, catalytic domain (JH1, amino acids 826-1132) of human JAK2 (Homo sapiens, UniProt O60674); test: JAK2 LanthaScreen JH1 binding assay; conditions: 50 nM tracer, 2 hours at 25° C., read-out: JH1 BIND IC50
T1 construct: catalytic domain (JH1, amino acids 826-1132) of human JAK2; FLAG (N); purchased Carna Biosciences 08-445-20N; host or cells: baculovirus expression system
T1 sequence (O60674 826-1132): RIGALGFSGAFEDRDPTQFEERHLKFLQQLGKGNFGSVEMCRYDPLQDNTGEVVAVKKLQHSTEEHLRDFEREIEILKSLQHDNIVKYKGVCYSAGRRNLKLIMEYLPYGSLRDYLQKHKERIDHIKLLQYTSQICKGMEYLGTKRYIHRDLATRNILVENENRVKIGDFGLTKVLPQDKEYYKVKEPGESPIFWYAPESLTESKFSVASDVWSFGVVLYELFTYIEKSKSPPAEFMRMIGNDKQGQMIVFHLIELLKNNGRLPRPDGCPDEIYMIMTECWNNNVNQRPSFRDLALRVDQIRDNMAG
Protocol: Example A. JAK2 LanthaScreen […] Binding Assay
JAK2 JH1 binding assay utilizes catalytic domain (JH1, amino acids 826-1132) of human JAK2 expressed as N-terminal FLAG-tagged, biotinylated protein in a baculovirus expression system (Carna Biosciences, Product #08-445-20N). The assay was conducted in black 384-well polystyrene plates in a final reaction volume of 20 μL. JAK2 JH1 (1.5 nM) was incubated with compounds (100 nL serially diluted in DMSO) in the presence of 50 nM fluorescent JAK2-JH1 tracer and 0.5 nM Streptavidin-Tb cryptate (Cisbio Part #610SATLB) in assay buffer (50 mM Tris, pH=7.5, 10 mM MgCl2, 0.01% Brij-35, 0.1% BSA, 1 mM EGTA, 5% Glycerol and 5 mM DTT). Non-specific binding was accessed in the presence of 2 mM ATP. After incubation for 2 hours at 25° C., LanthaScreen signals were read on a PHERAstar FS plate reader (BMG LABTECH). Data was analyzed with IDBS XLfit and GraphPad Prism 5.0 software using a four parameter dose response curve to determine IC50 for each compound.

[2] = target: T2, pseudo-kinase domain (JH2, amino-acids 536-812 with 3 surface mutations W659A, W777A, F794H) of human V617F mutant JAK2 (Homo sapiens, UniProt O60674, F794H/V617F/W659A/W777A); test: JAK2 LanthaScreen JH2-V617F binding assay; conditions: 50 nM tracer, 1 hour at 25° C., read-out: JH2 BIND V617F IC50
T2 construct: pseudo-kinase domain (JH2, amino-acids 536-812 with 3 surface mutations W659A, W777A, F794H); His (C); Avi (biotinylated) (C); purchased BPS Bioscience 79498; host or cells: baculovirus expression system
T2 sequence (O60674 536-812 V617F/W659A/W777A/F794H): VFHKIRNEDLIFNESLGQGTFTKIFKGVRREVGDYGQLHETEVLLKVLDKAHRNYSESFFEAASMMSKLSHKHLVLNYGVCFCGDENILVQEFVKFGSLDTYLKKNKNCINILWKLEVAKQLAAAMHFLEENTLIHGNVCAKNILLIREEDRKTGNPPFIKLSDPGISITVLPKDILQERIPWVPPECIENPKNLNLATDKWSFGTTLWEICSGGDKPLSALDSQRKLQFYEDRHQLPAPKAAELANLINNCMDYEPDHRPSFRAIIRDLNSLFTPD
Protocol: Example C. JAK2 LanthaScreen JH2-V617F Binding Assay
(§1) JAK2 JH2-V617F binding assay utilizes pseudo-kinase domain (JH2, amino-acids 536-812 with 3 surface mutations W659A, W777A, F794H) of human V617F mutant JAK2 expressed as C-terminal His-Avi-tagged, biotinylated protein in a baculovirus expression system (BPS Bioscience, Catalog #79498). The assay was conducted in black 384-well polystyrene plates in a final reaction volume of 20 μL. JAK2 JH2-V617F (0.26 nM) was incubated with compounds (100 nL serially diluted in DMSO) in the presence of 50 nM Fluorescent JAK2-JH2 Tracer (MedChem Express Catalog #HY-102055) and 0.25 nM Streptavidin-Tb cryptate (Cisbio Part #610SATLB) in assay buffer (50 mM Tris, pH=7.5, 10 mM MgCl2, 0.01% Brij-35, 0.1% BSA, 1 mM EGTA, 5% Glycerol and 5 mM DTT). Non-specific binding was accessed in the presence of 2 mM ATP. After incubation for 1 hour at 25° C., LanthaScreen signals were read on a PHERAstar FS plate reader (BMG LABTECH). Data was analyzed with IDBS XLfit and GraphPad Prism 5.0 software using a four parameter dose response curve to determine IC50 for each compound.

[3] = target: T3, pseudo-kinase domain (JH2, amino-acids 536-812 with 3 surface mutations W659A, W777A, F794H) of human Wild Type JAK2 (Homo sapiens, UniProt O60674, F794H/W659A/W777A); test: JAK2 LanthaScreen JH2-WT binding assay; conditions: 50 nM tracer, 1 hour at 25° C., read-out: JH2 BIND WT IC50
T3 construct: pseudo-kinase domain (JH2, amino-acids 536-812 with 3 surface mutations W659A, W777A, F794H); His (C); Avi (biotinylated) (C); purchased BPS Bioscience 79463; host or cells: baculovirus expression system
T3 sequence (O60674 536-812 W659A/W777A/F794H): as the sequence (O60674 536-812 V617F/W659A/W777A/F794H) above, with F82V counted along it
Protocol: Example B. JAK2 LanthaScreen JH2-WT Binding Assay
as §1, with “JH2-WT” for “JH2-V617F”, “Wild Type” for “V617F mutant”, “#79463).” for “#79498).”, “JH2-WT (0.145” for “JH2-V617F (0.26”

Row | Compound | IC50 [1] | IC50 [2] | IC50 [3]
1 | CC(C)n1ncc2cc(-c3c(-c4cnn(C)c4)[nH]c4ncc5c(c34)N([C@H]3C[C@@H](NC(=O)c4nc(C(F)(F)F)cs4)C3)C(=O)NC5)ccc21 [Example 22, N-((1s,3s)-3-(9-(1-isopropyl-1H-indazol-5-yl)-8-(1-methyl-1H-pyrazol-4-yl)-2-oxo-2,3,4,7-tetrahydro-1H-pyrrolo[3′,2′:5,6]pyrido[4,3-d]pyrimidin-1-yl)cyclobutyl)-4-(trifluoromethyl)thiazole-2-carboxamide] | > 1000 nM | 100 to 500 nM | 100 to 500 nM
2 | CC(=O)N[C@H]1C[C@H](N2C(=O)NCc3cnc4[nH]c(-c5cnn(C)c5)c(-c5ccc6c(cnn6C(C)C)c5)c4c32)C1 [Example 2, N-((1r,3r)-3-(9-(1-Isopropyl-1H-indazol-5-yl)-8-(1-methyl-1H-pyrazol-4-yl)-2-oxo-2,3,4,7-tetrahydro-1H-pyrrolo[3′,2′:5,6]pyrido[4,3-d]pyrimidin-1-yl)cyclobutyl) acetamide] | > 1000 nM | 10 to 100 nM | 10 to 100 nM
3 | COC(=O)N[C@@H]1CC[C@@H](N2C(=O)NCc3cnc4[nH]c(-c5cnn(C)c5)c(-c5ccc(OC)cc5)c4c32)C1 [Example 28, Methyl ((1R,3R)-3-(9-(4-methoxyphenyl)-8-(1-methyl-1H-pyrazol-4-yl)-2-oxo-2,3,4,7-tetrahydro-1H-pyrrolo[3′,2′:5,6]pyrido[4,3-d]pyrimidin-1-yl)cyclopentyl)carbamate] | > 1000 nM | 10 to 100 nM | 10 to 100 nM
4 | COC(=O)N[C@H]1C[C@@H](N2C(=O)NCc3cnc4[nH]c(-c5cnn(C)c5)c(-c5ccc6c(cnn6C(C)C)c5)c4c32)C1 [Example 4, Methyl ((1s,3s)-3-(9-(1-isopropyl-1H-indazol-5-yl)-8-(1-methyl-1H-pyrazol-4-yl)-2-oxo-2,3,4,7-tetrahydro-1H-pyrrolo[3′,2′:5,6]pyrido[4,3-d]pyrimidin-1-yl)cyclobutyl) carbamate] | > 1000 nM | 10 to 100 nM | 10 to 100 nM
5 | CC(C)n1ncc2cc(-c3c(-c4cnn(C)c4)[nH]c4ncc5c(c34)N([C@H]3CC[C@@H]3NS(C)(=O)=O)C(=O)NC5)ccc21 (racemic) [Example 7, N-(trans-2-(9-(1-Isopropyl-1H-indazol-5-yl)-8-(1-methyl-1H-pyrazol-4-yl)-2-oxo-2,3,4,7-tetrahydro-1H-pyrrolo[3′,2′:5,6]pyrido[4,3-d]pyrimidin-1-yl)cyclobutyl) methan esulfonamide] | > 1000 nM | 10 to 100 nM | 10 to 100 nM
6 | CC(C)n1ncc2cc(-c3c(-c4cnn(C)c4)[nH]c4ncc5c(c34)N(C3CCC4(CC3)CN(C(=O)NCC(F)F)C4)C(=O)NC5)ccc21 [Example 19, N-(2,2-Difluoroethyl)-7-(9-(1-isopropyl-1H-indazol-5-yl)-8-(1-methyl-1H-pyrazol-4-yl)-2-oxo-2,3,4,7-tetrahydro-1H-pyrrolo[3′,2′:5,6]pyrido[4,3-d]pyrimidin-1-yl)-2-azaspiro[3.5] nonane-2-carboxamide] | 100 to 500 nM | 10 to 100 nM | 10 to 100 nM
7 | COC(=O)N1CC2(CCC(N3C(=O)NCc4cnc5[nH]c(-c6cnn(C)c6)c(-c6ccc7c(cnn7C(C)C)c6)c5c43)CC2)C1 [Example 18, Methyl 7-(9-(1-isopropyl-1H-indazol-5-yl)-8-(1-methyl-1H-pyrazol-4-yl)-2-oxo-2,3,4,7-tetrahydro-1H-pyrrolo[3′,2′:5,6]pyrido[4,3-d]pyrimidin-1-yl)-2-azaspiro[3.5] nonane-2-carboxylate] | 100 to 500 nM | 10 to 100 nM | 10 to 100 nM
8 | CC(C)n1ncc2cc(-c3c(-c4cnn(C)c4)[nH]c4ncc5c(c34)N(C3CCC4(CC3)CN(S(=O)(=O)C3(C)CC3)C4)C(=O)NC5)ccc21 [Example 20, 9-(1-isopropyl-1H-indazol-5-yl)-8-(1-methyl-1H-pyrazol-4-yl)-1-(2-((1-methylcyclopropyl)sulfonyl)-2-azaspiro[3.5]nonan-7-yl)-1,3,4,7-tetrahydro-2H-pyrrolo [3′,2′:5,6]pyrido[4,3-d]pyrimidin-2-one] | > 1000 nM | 10 to 100 nM | 10 to 100 nM
